In patent US9328083B2, “2-aminated methylene or 2-esterified methylene tanshinone derivatives, and preparation method and application thereof” (HANGZHOU BENSHENG PHARMACEUTICAL CO., LTD., priority 2011, dated 2016):
Converted amounts (≈) assume the structure as drawn.

Tests used:
[1] = test system: RPMI8226 (multiple myeloma); test: MTT growth inhibition of multiple myeloma cells, 72 h; type: cell-based, human; settings: Homo sapiens, RPMI 8226, 72 h; for IC50: read-out: IC50; for IC90: read-out: IC90
Procedure, shortened: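 RPMI8226 myeloma cells, 6000 per well in 1640 medium with 10% FBS, exposed to compounds at a range of concentrations (diluted from 10 mg/mL DMSO stock) for 72 h at 37° C, 5% CO2. Viable cells then determined by MTT.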

[2] = test system: Hep-2 (laryngeal carcinoma); test: MTT growth inhibition of human solid tumor cells, 72 h; type: cell-based; settings: Homo sapiens, HEp-2, 72 h; for IC50: read-out: IC50; for IC90: read-out: IC90
Procedure, shortened: (§1)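 4000 cells per well in DMEM high glucose with 10% FBS were grown for 24 h at 37°C, 5% CO2. Compounds were diluted from a 10 mg/mL DMSO stock, and cells were exposed for 72 h; viable cells measured by MTT.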

A549 (human lung cancer) = test: as above; type: cell-based; settings: Homo sapiens, A549, 72 h; for IC50: read-out: IC50; for IC90: read-out: IC90
Procedure, shortened: as §1

[3] = test system: CaES-17 (esophageal cancer cell); test: as above; type: cell-based; settings: Homo sapiens, CaEs17, CaEs-17, 72 h; for IC50: read-out: IC50; for IC90: read-out: IC90
Procedure, shortened: as §1

[4] = test system: Hep G2 (human liver cancer cell); test: as above; type: cell-based; settings: Homo sapiens, HepG2, Hep G2, 72 h; for IC50: read-out: IC50; for IC90: read-out: IC90
Procedure, shortened: as §1

[5] = test system: Becap37 (human breast cancer cell); test: as above; type: cell-based; settings: Homo sapiens, Becap-37, 72 h; for IC50: read-out: IC50; for IC90: read-out: IC90
Procedure, shortened: as §1

[6] = test system: PANC-1 (pancreatic cancer); test: as above; type: cell-based; settings: Homo sapiens, PANC-1, 72 h; for IC50: read-out: IC50; for IC90: read-out: IC90
Procedure, shortened: as §1

PC-3 (prostate cancer) = test: as above; type: cell-based; settings: Homo sapiens, PC-3, 72 h; for IC50: read-out: IC50; for IC90: read-out: IC90
Procedure, shortened: as §1

[7] = test system: RKO (human colon adenocarcinoma cell); test: as above; type: cell-based; settings: Homo sapiens; for IC50: read-out: IC50; for IC90: read-out: IC90
Procedure, shortened: as §1

MG63 (osteosarcoma) = test: as above; type: cell-based; settings: Homo sapiens, MG-63, 72 h; for IC50: read-out: IC50; for IC90: read-out: IC90
Procedure, shortened: as §1

[8] = test system: Hela (human cervical cancer cell); test: as above; type: cell-based; settings: Homo sapiens, HeLa, 72 h; for IC50: read-out: IC50; for IC90: read-out: IC90
Procedure, shortened: as §1

[9] = test system: SK-OV-3 (ovarian cancer cell); test: as above; type: cell-based; settings: Homo sapiens, SK-OV-3, 72 h; for IC50: read-out: IC50; for IC90: read-out: IC90
Procedure, shortened: as §1

[10] = test system: U87 MG (malignant glioma cell); test: as above; type: cell-based; settings: Homo sapiens, U-87 MG, U87-MG, 72 h; for IC50: read-out: IC50; for IC90: read-out: IC90
Procedure, shortened: as §1

[11] = test system: CNE (nasopharyngeal carcinoma cell); test: as above; type: cell-based; settings: Homo sapiens; for IC50: read-out: IC50; for IC90: read-out: IC90
Procedure, shortened: as §1

[12] = test system: MGC 803 (human gastric cancer cell); test: as above; type: cell-based; settings: Homo sapiens, MGC-803, 72 h; for IC50: read-out: IC50; for IC90: read-out: IC90
Procedure, shortened: as §1

[13] = test system: Jurkat (acute lymphoblastic leukemia, ALL); test: MTT growth inhibition of leukemia cells, 72 h; type: cell-based, human; settings: Homo sapiens, 72 h; for IC50: read-out: IC50; for IC90: read-out: IC90
Procedure, shortened: (§2)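 Leukemia cells were seeded at 6000 per well in RPMI-1640 with 10% fetal bovine serum. Tanshinone I derivatives, from 10 mg/mL DMSO stocks diluted in medium, were added at various concentrations on the following day. After 72 h at 37 °C under 5% CO2, viable cells were measured by MTT.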

[14] = test system: NB4 (acute promyelocytic leukemia, AML); test: MTT growth inhibition of leukemia cells, 72 h; type: cell-based, human; settings: Homo sapiens, NB4, 72 h; for IC50: read-out: IC50; for IC90: read-out: IC90
Procedure, shortened: as §2

[15] = test system: H9 (acute lymphoblastic leukemia, ALL); test: MTT growth inhibition of leukemia cells, 72 h; type: cell-based, human; settings: Homo sapiens, H9, 72 h; for IC50: read-out: IC50; for IC90: read-out: IC90
Procedure, shortened: as §2

[16] = test system: Kasumi-1 (acute myeloid leukemia M2 type, AML-M2); test: MTT growth inhibition of leukemia cells, 72 h; type: cell-based, human; settings: Homo sapiens, Kasumi-1, 72 h; for IC50: read-out: IC50; for IC90: read-out: IC90
Procedure, shortened: as §2

[17] = test system: K562/adr (drug-resistant, chronic myeloid leukemia, CML); test: MTT growth inhibition of leukemia cells, 72 h; type: cell-based, human; settings: Homo sapiens, K562/Adr; for IC50: read-out: IC50; for IC90: read-out: IC90
Procedure, shortened: as §2

| SMILES | IC50 [1] [µg/mL] | IC90 [1] [µg/mL] | IC50 [2] [µg/mL] | IC90 [2] [µg/mL] | IC50 (A549 (human lung cancer)) [µg/mL] | IC90 (A549 (human lung cancer)) [µg/mL] | IC50 [3] [µg/mL] | IC90 [3] [µg/mL] | IC50 [4] [µg/mL] | IC90 [4] [µg/mL] | IC50 [5] [µg/mL] | IC90 [5] [µg/mL] | IC50 [6] [µg/mL] | IC90 [6] [µg/mL] | IC50 (PC-3 (prostate cancer)) [µg/mL] | IC90 (PC-3 (prostate cancer)) [µg/mL] | IC50 [7] [µg/mL] | IC90 [7] [µg/mL] | IC50 (MG63 (osteosarcoma)) [µg/mL] | IC90 (MG63 (osteosarcoma)) [µg/mL] | other results |
| --- | --- | --- | --- | --- | --- | --- | --- | --- | --- | --- | --- | --- | --- | --- | --- | --- | --- | --- | --- | --- | --- |
| Cc1c(CNCC2CC2)oc2c1C(=O)C(=O)c1c-2ccc2c(C)cccc12 [BS-TA-B07] | 3.46 (≈ 9.63 µM) | 10.2 (≈ 28.3 µM) | 9.45 (≈ 26.3 µM) | > 16 | 5.98 (≈ 16.6 µM) | 21.9 (≈ 61.1 µM) | 9.16 (≈ 25.5 µM) | 19.7 (≈ 54.8 µM) | 8.46 (≈ 23.5 µM) | > 16 | 5.23 (≈ 14.6 µM) | 14.3 (≈ 39.9 µM) | 1.33 (≈ 3.7 µM) | 8.21 (≈ 22.8 µM) | 7.05 (≈ 19.6 µM) | 16 (≈ 44.5 µM) | 0.93 (≈ 2.59 µM) | 17 (≈ 47.4 µM) | 8.14 (≈ 22.6 µM) | > 16 | IC50 [8]: 6.86 µg/mL (≈ 19.1 µM); IC90 [8]: 18.5 µg/mL (≈ 51.4 µM); IC50 [9]: > 16 µg/mL; IC90 [9]: > 16 µg/mL; IC50 [10]: 10.1 µg/mL (≈ 28 µM); IC90 [10]: 21.2 µg/mL (≈ 59 µM); IC50 [11]: 9 µg/mL (≈ 25 µM); IC90 [11]: > 16 µg/mL; IC50 [12]: 6.9 µg/mL (≈ 19.2 µM); IC90 [12]: 17.1 µg/mL (≈ 47.7 µM); IC50 [13]: 3.11 µg/mL (≈ 8.65 µM); IC90 [13]: 9.52 µg/mL (≈ 26.5 µM); IC50 [14]: 1.35 µg/mL (≈ 3.76 µM); IC90 [14]: 3.74 µg/mL (≈ 10.4 µM); IC50 [15]: 2.9 µg/mL (≈ 8.07 µM); IC90 [15]: 7.5 µg/mL (≈ 20.9 µM); IC50 [16]: 1.07 µg/mL (≈ 2.98 µM); IC90 [16]: 3.86 µg/mL (≈ 10.7 µM); IC50 [17]: 3.22 µg/mL (≈ 8.96 µM); IC90 [17]: 6.38 µg/mL (≈ 17.8 µM) |
| Cc1c(C[N+](C)(CCO)Cc2ccc(F)c(Cl)c2)oc2c1C(=O)C(=O)c1c-2ccc2c(C)cccc12 (centres unmarked) [BS-TA-60] | 2 | 7.64 | 1.79 | 7.41 | 3.78 | 9.78 | 3.58 | 7.74 | 2.5 | 5.97 | 1.88 | 3.67 | 1.74 | 3.58 | 5.03 | 10.8 | 0.52 | 1.88 | 1.24 | 5.23 | IC50 [8]: 3.32 µg/mL; IC90 [8]: 7.35 µg/mL; IC50 [9]: 9.78 µg/mL; IC90 [9]: 22.7 µg/mL; IC50 [10]: 0.36 µg/mL; IC90 [10]: 18.8 µg/mL; IC50 [11]: 3.2 µg/mL; IC90 [11]: 7.2 µg/mL; IC50 [12]: 2.9 µg/mL; IC90 [12]: 5.4 µg/mL; IC50 [13]: 1.28 µg/mL; IC90 [13]: 3.99 µg/mL; IC50 [14]: 0.9 µg/mL; IC90 [14]: 2.98 µg/mL; IC50 [15]: 1.4 µg/mL; IC90 [15]: 4 µg/mL; IC50 [16]: 1.61 µg/mL; IC90 [16]: 3.86 µg/mL; IC50 [17]: 1.36 µg/mL; IC90 [17]: 5.12 µg/mL |
